According to patent publication US8748626B2, “Oxazole and thiazole compounds as KSP inhibitors” (Novartis AG, priority 2010, dated 2014):

How the values were obtained:
[1] = target: motor domain of human KSP (Eg 5, KNSL1) (Homo sapiens (Human), UniProt P52732); assay: Assay for determining KSP activity (microtubule-stimulated ATPase, Biomol Green); format: biochemical; details: KSP motor domain 45 nM, microtubules 35 μg/mL, ATP, 1 hour RT, absorbance 630 nm; read-out: Biological Activity IC50
Source text: This example provides a representative in vitro assay for determining KSP activity in vitro. Purified microtubules obtained from bovine brain were purchased from Cytoskeleton Inc. (Denver, Colo., USA). The motor domain of human KSP (Eg 5, KNSL1) was cloned, expressed, and purified to greater than 95% homogeneity. Biomol Green was purchased from Affinity Research Products Ltd. (Matford Court, Exeter, Devon, United Kingdom). Microtubules and KSP motor protein (i.e., the KSP motor domain) were diluted in assay buffer (20 mM Tris-HCl (pH 7.5), 1 mM MgCl2, 10 mM DTT and 0.25 mg/mL BSA) to a final concentration of 35 μg/mL microtubules and 45 nM KSP. The microtubule/KSP mixture was then pre-incubated at 37° C. for 10 min to promote the binding of KSP to microtubules.
To each well of the testing plate (384-well plate) containing 1.25 μL of inhibitor or test compound in DMSO (or DMSO only in the case of controls) were added 25 μL of ATP solution (ATP diluted to a concentration of 300 μM in assay buffer) and 25 μL of the above-described microtubule/KSP solution. The plates were incubated at RT for 1 hour. Following incubation, 65 μL of Biomol Green (a malachite green-based dye that detects the release of inorganic phosphate) was added to each well. The plates were incubated for an additional 5-10 minutes then the absorbance at 630 nm was determined using a Victor II plate reader. The amount of absorbance at 630 nm corresponded to the amount of KSP activity in the samples. The IC50 of each inhibitor or test compound was then determined based on the decrease in absorbance at 630 nm at each concentration, via nonlinear regression using either XLFit for Excel or Prism data analysis software by GraphPad Software Inc.

[2] = system: tumor cell lines; assay: Inhibition of cellular proliferation in tumor cell lines (CellTiter-Glo); format: cell-based; details: 50% growth inhibition at 72 hours of continuous compound exposure; cell line not specified; read-out: Biological Activity GI50
Description: Cells are plated in 96-well plates at densities of about 500 cells per well of a 96-well plate and are allowed to grow for 24 hours. The cells are then treated with various concentrations of compounds for 72 hours. Then, 100 μl of CellTiter-Glo® solution are added. The CellTiter-Glo® assay measures the amount of ATP present in the well after lysing the cells; the ATP released is used in an enzymatic reaction including the enzyme Luciferease and its substrate Luciferin. The amount of light emitted is proportional to the amount of ATP, which in turn is proportional to the number of live cells in the well. (see Promega product catalog #G7573, CellTiter-Glo® Luminescent Cell Viability Assay). The cells are then incubated in the dark for 30 minutes. The amount of luminescence is determined for each well using a Wallac Trilux plate reader, which correlates with the number of cells per well. The number of viable cells in the wells that receive only DMSO (0.5%) serve as an indication of 0°/a inhibition, while wells without cells serve as 100% inhibition of cell growth. The compound concentration that results in a 50% growth inhibition (GI50) is determined graphically from sigmoidal dose-response curves of log-transformed dose values versus cell counts (percent of control) at 72 hours of continuous compound exposure.
The cell lines used are listed below.
The cell proliferation assay is performed as described above. • Cancer Cell Lines • Colo 205—colon carcinoma • RPMI 1640+10% FBS+1% L-glutamine+1% P/S+1% NaPyr.+Hepes+4.5 g/L Glucose+1% NaBicarb. • MDA 435—breast cancer—high met • EMEM+10% FBS+1% P/S+1% L-Glutamine+1% NEAA+1% NaPyr+1% vitamins • HCT-15 and HCT116—colon carcinoma • RPMI 1640+10% FBS+1% L-glutamine+1% P/S • Drug Resistant Cell Lines • KB3.1—[…] epidermal carcinoma; parental cell line • Iscove's+10% FBS+1% L-glutamine+1% P/S • KBV1—p-glycoprotein associated multi-drug resistant cell line • RPMI 1640+10% FBS+1% L-glutamine+1% P/S+0.2 ug/mL Vinblastine • KB85—p-glycoprotein associated multi-drug resistant cell line • DMEM+10% FBS+1% L-glutamine+1% P/S+10 ng/mL Colchicine

motor domain of human KSP (Eg 5, KNSL1), sequence (P52732 18-359): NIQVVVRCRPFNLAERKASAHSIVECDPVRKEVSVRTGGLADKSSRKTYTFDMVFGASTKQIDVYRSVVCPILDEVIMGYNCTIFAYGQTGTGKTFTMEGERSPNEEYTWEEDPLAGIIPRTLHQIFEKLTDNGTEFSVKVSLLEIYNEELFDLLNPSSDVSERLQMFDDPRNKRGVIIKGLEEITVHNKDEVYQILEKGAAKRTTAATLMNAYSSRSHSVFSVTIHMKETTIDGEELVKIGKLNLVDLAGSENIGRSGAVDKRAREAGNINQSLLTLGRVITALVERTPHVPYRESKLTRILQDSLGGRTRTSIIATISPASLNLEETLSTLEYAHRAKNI

Compound	IC50 [1] [nM]	GI50 [2] [nM]
C[C@H](O)C(=O)N(C[C@@H]1CNC[C@@H]1F)[C@@H](c1nc(-c2cc(F)ccc2F)sc1Cc1ccccc1)C(C)(C)C [Example 1, (S)-N-((R)-1-(5-benzyl-2-(2,5-difluorophenyl)thiazol-4-yl)-2,2-dimethylpropyl)-N-(((3S,4R)-4-fluoropyrrolidin-3-yl)methyl)-2-hydroxypropanamide]	0.84	0.18
C[C@H](O)C(=O)N(C[C@@H]1CNC[C@@H]1F)[C@@H](c1nc(-c2cc(F)ccc2F)oc1Cc1ccccc1)C(C)(C)C [Example 4, (S)-N-((R)-1-(5-benzyl-2-(2,5-difluorophenyl)oxazol-4-yl)-2,2-dimethylpropyl)-N-(((3S,4R)-4-fluoropyrrolidin-3-yl)methyl)-2-hydroxypropanamide]	7.18	3.5
C[C@H](O)C(=O)N(CC[C@H](N)CF)[C@@H](c1nc(-c2cc(F)ccc2F)sc1Cc1ccccc1)C(C)(C)C [Example 3, (S)-N-((S)-3-amino-4-fluorobutyl)-N-((R)-1-(5-benzyl-2-(2,5-difluorophenyl)thiazol-4-yl)-2,2-dimethylpropyl)-2-hydroxypropanamide]	2.6	2.2
C[C@H](O)C(=O)N(CC[C@H](N)CF)[C@H](c1nc(-c2cc(F)ccc2F)oc1Cc1ccccc1)C(C)(C)C [Example 7, (S)-N-((S)-3-amino-4-fluorobutyl)-N-((S)-1-(5-benzyl-2-(2,5-difluorophenyl)oxazol-4-yl)-2,2-dimethylpropyl)-2-hydroxypropanamide]	631	–
CC(C)(C)[C@H](c1nc(-c2cc(F)ccc2F)sc1Cc1ccccc1)N(C[C@@H]1CNC[C@@H]1F)C(=O)[C@@H]1CCCO1 [Example 2, (S)-N-((R)-1-(5-benzyl-2-(2,5-difluorophenyl)thiazol-4-yl)-2,2-dimethylpropyl)-N-(((3S,4R)-4-fluoropyrrolidin-3-yl)methyl)tetrahydrofuran-2-carboxamide]	10	1.4
C[C@H](O)C(=O)N(CC[C@H](N)CF)[C@@H](c1nc(-c2cc(F)ccc2F)oc1Cc1ccccc1)C(C)(C)C [Example 5, (S)-N-((S)-3-amino-4-fluorobutyl)-N-((R)-1-(5-benzyl-2-(2,5-difluorophenyl)oxazol-4-yl)-2,2-dimethylpropyl)-2-hydroxypropanamide]	2.54	4.82
C[C@H](O)C(=O)N(CC[C@H](N)CF)[C@H](c1nc(-c2cc(F)ccc2F)sc1Cc1ccccc1)C(C)(C)C [Example 8, (S)-N-((S)-3-amino-4-fluorobutyl)-N-((S)-1-(5-benzyl-2-(2,5-difluorophenyl)thiazol-4-yl)-2,2-dimethylpropyl)-2-hydroxypropanamide]	–	944
C[C@H](O)C(=O)N(C[C@@H]1CNC[C@@H]1F)[C@H](c1nc(-c2cc(F)ccc2F)oc1Cc1ccccc1)C(C)(C)C [Example 6, (S)-N-((S)-1-(5-benzyl-2-(2,5-difluorophenyl)oxazol-4-yl)-2,2-dimethylpropyl)-N-(((3S,4R)-4-fluoropyrrolidin-3-yl)methyl)-2-hydroxypropanamide]	1000	–
